Results from US9260382B2, “Methods of reducing virulence in bacteria” (priority 2010, dated 2016).

System: hrpS mRNA
Experiment: qRT-PCR relative mRNA level of hrpS
Type: cell-based, Dickeya dadantii 3937
Conditions: 0.1 mM in MM
Protocol: Bacterial strains were grown in MM. Total RNA from the bacterial cells was isolated by using the TRI reagent method (Sigma, Mo.) and treated with Turbo DNA-free DNase kits (Ambion, Tex.) as described (Peng et al., 2006). An iScript cDNA Synthesis Kit (Bio-Rad, CA) was used to synthesize cDNA from 0.5 μg of treated total RNA. The Real Master Mix (Eppendorf, Westbury, N.Y.) was used for qRT-PCR reaction to quantify the cDNA level of target genes in different samples. The rplU was used as the endogenous control for data analysis. qRT-PCR data were analyzed using Relative Expression Software Tool as described (Pfaffl, M. W., Horgan, G. W., and Dempfle, L. (2002) Relative expression software tool (REST) for group-wise comparison and statistical analysis of relative expression results in real-time PCR. Nucleic Acids Res 30:e36.).

O=C(O)/C=C/c1ccccc1O [Compound 006, Ortho-coumaric acid]
hrpS mRNA compared with MM alone, in words: No significant difference
